According to patent publication US20130012466A1 (priority 2006, published 2013):
Like-named read-outs stand apart in the source and are kept apart here.

Columns and labels:
tubulin = assay: In vitro tubulin polymerization assay (fluorescence-based); format: biochemical; conditions: for effect on tubulin polymerization / microtubules: tested in duplicate on at least two days
Method: In vitro tubulin polymerization assays were performed using a fluorescence-based assay (Cytoskeleton, Inc., Denver, Colo.). […] Aliquots (5 μL) of each compound or control were added to a 96-well black half area plate (Corning Costar, Inc.) pre-warmed to 37° C. Cold tubulin reaction mix (50 μL 1× Buffer—80 mM piperazine-N,N′-bis[2-ethanesulfonic acid]sequisodium salt; 2.0 mM magnesium chloride; 0.5 mM ethylene glycol-bis[β-amino-ethyl ether) N,N,N′,N′-tetra-acetic acid, pH 6.9, 10 μM fluorescent reporter; 20% tubulin glycerol buffer—80 mM piperazine-N,N′-bis[2-ethanesulfonic acid] sequisodium salt; 2.0 mM magnesium chloride; 0.5 mM ethylene glycol-bis(β-amino-ethyl ether) N,N,N′,N′-tetra-acetic acid, 60% v/v glycerol, pH 6.9, 1 mM GTP; and 2 mg mL^−1 tubulin stock) was added to each of the compounds. […] Polymerization curves were generated in Excel after background correction and the effects of test compounds were compared to controls.
Library members that accelerated the rate of tubulin polymerization were deemed microtubule stabilizers, whereas compounds that decelerated the rate of tubulin polymerization were deemed microtubule de-stabilizers.

[1] = system: mouse mammary normal epithelial control cell line; assay: Cytotoxicity assay, normal control cell line
A549 = assay: Cytotoxicity assay (cell titer-glo and calcein AM), A549; conditions: A549, % error in parentheses
Du145 = assay: Cytotoxicity assay (cell titer-glo and calcein AM), Du145
Hep3B = assay: Cytotoxicity assay (cell titer-glo and calcein AM), Hep3B
SF-268 = assay: Cytotoxicity assay (cell titer-glo and calcein AM), SF-268
SK-OV-3 = assay: Cytotoxicity assay (cell titer-glo and calcein AM), SK-OV-3
ADR-RES = assay: Cytotoxicity assay (cell titer-glo and calcein AM), ADR-RES
NCI-H460 = assay: Cytotoxicity assay (cell titer-glo and calcein AM), NCI-H460; conditions: NCI-H460, % error in parentheses
MCF7 = assay: Cytotoxicity assay (cell titer-glo and calcein AM), MCF7
HCT-116 = assay: Cytotoxicity assay (cell titer-glo and calcein AM), HCT-116
A549 cells [2] = assay: Drug combination study with colchicine (Chou-Talalay combination index); conditions: for plus colchicine, mean CI / plus colchicine, median CI: combination index, colchicine held at IC10, A549 cells; for interaction with colchicine: drug combination, A549 cells, Chou-Talalay
Method: (§1) Ten thousand A549 cells per well were plated in triplicate in 96 well black tissue culture treated plates. Cells were incubated for one hour at 37° C. to allow cells to attach.
(§2) All synergy experiment results were replicated at least three times and the overall effects analyzed by averaging all combination indexes generated if the fraction affected was greater than 0.2.

A549 cells [3] = assay: Drug combination study with paclitaxel (Chou-Talalay combination index); conditions: for plus paclitaxel, mean CI / plus paclitaxel, median CI: combination index, paclitaxel held at IC10, A549 cells; for interaction with paclitaxel/taxol: drug combination, A549 cells, Chou-Talalay;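 on all read-outs here: combination indexes averaged only over points where fraction affected exceeded 0.2, with each synergy experiment repeated at least three times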
Method: as §1, §2

[4] = read-out: Cytotoxicity IC50, NmuMG, CTG, CTG (cell titer-glo) readout, % error in parentheses
[5] = read-out: Cytotoxicity IC50, NmuMG, calcein, calcein AM readout, % error in parentheses
[6] = read-out: Cytotoxicity IC50, A549, CTG, CTG (cell titer-glo) readout
[7] = read-out: Cytotoxicity IC50, A549, calcein, calcein AM readout
[8] = read-out: Cytotoxicity IC50, Du145, CTG, Du145, CTG (cell titer-glo) readout, % error in parentheses
[9] = read-out: Cytotoxicity IC50, Du145, calcein, Du145, calcein AM readout, % error in parentheses
[10] = read-out: Cytotoxicity IC50, Hep 3B, CTG, Hep 3B, CTG (cell titer-glo) readout, % error in parentheses
[11] = read-out: Cytotoxicity IC50, Hep 3B, calcein, Hep 3B, calcein AM readout, % error in parentheses
[12] = read-out: Cytotoxicity IC50, SF-268, CTG, SF-268, CTG (cell titer-glo) readout, % error in parentheses
[13] = read-out: Cytotoxicity IC50, SF-268, calcein, SF-268, calcein AM readout, % error in parentheses
[14] = read-out: Cytotoxicity IC50, SK-OV-3, CTG, SK-OV-3, CTG (cell titer-glo) readout, % error in parentheses
[15] = read-out: Cytotoxicity IC50, SK-OV-3, calcein, SK-OV-3, calcein AM readout, % error in parentheses
[16] = read-out: Cytotoxicity IC50, NCI/ADR RES, CTG, NCI/ADR RES, CTG (cell titer-glo) readout, % error in parentheses
[17] = read-out: Cytotoxicity IC50, NCI/ADR RES, calcein, NCI/ADR RES, calcein AM readout, % error in parentheses
[18] = read-out: Cytotoxicity IC50, NCI-H460, CTG, CTG (cell titer-glo) readout
[19] = read-out: Cytotoxicity IC50, NCI-H460, calcein, calcein AM readout
[20] = read-out: Cytotoxicity IC50, MCF7, CTG, CTG (cell titer-glo) readout, % error in parentheses
[21] = read-out: Cytotoxicity IC50, MCF7, calcein, calcein AM readout, % error in parentheses

| Compound | effect on tubulin polymerization / microtubules (tubulin) | IC50 [1, 4] [nM] | IC50 [1, 5] [nM] | IC50 (A549; [6]) [nM] | IC50 (A549; [7]) [nM] | IC50 (Du145; [8]) [nM] | IC50 (Du145; [9]) [nM] | IC50 (Hep3B; [10]) [nM] | IC50 (Hep3B; [11]) [nM] | IC50 (SF-268; [12]) [nM] | IC50 (SF-268; [13]) [nM] | IC50 (SK-OV-3; [14]) [nM] | IC50 (SK-OV-3; [15]) [nM] | IC50 (ADR-RES; [16]) [nM] | IC50 (ADR-RES; [17]) [nM] | IC50 (NCI-H460; [18]) [nM] | IC50 (NCI-H460; [19]) [nM] | IC50 (MCF7; [20]) [nM] | IC50 (MCF7; [21]) [nM] | plus colchicine, mean CI (A549 cells [2]) | other results |
| --- | --- | --- | --- | --- | --- | --- | --- | --- | --- | --- | --- | --- | --- | --- | --- | --- | --- | --- | --- | --- | --- |
| COc1cc2c(c(OC)c1OC)-c1ccc(OC)c(=O)cc1[C@@H](NC(=O)CN(OC)[C@@H]1O[C@H](CO)[C@@H](O[C@H]3O[C@H](CO)[C@@H](O)[C@H](O)[C@H]3O)[C@H](O)[C@H]1O)CC2 [Col38, D-maltoside] | destabilized microtubules | 976 | 875 | 244 | 508 | 215 | 342 | 229 | 1390 | 160 | 319 | 252 | 316 | 199 | 173 | 112 | 487 | 291 | – | – | – |
| 6-thio-D-mannose dimer [Col58] | – | 6390 | > 10000 | 3920 | 4620 | 2090 | 2120 | 8620 | 5020 | 8010 | 9090 | 6070 | 7560 | 3600 | 1570 | > 10000 | > 10000 | 2500 | 3860 | – | IC50 (HCT-116; read-out: Cytotoxicity IC50, HCT-116, CTG, HCT-116, CTG (cell titer-glo) readout, % error in parentheses): 1900 nM; IC50 (HCT-116; read-out: Cytotoxicity IC50, HCT-116, calcein, HCT-116, calcein AM readout, % error in parentheses): 2510 nM |
| COc1cc2c(c(OC)c1OC)-c1ccc(OC)c(=O)cc1[C@@H](NC(=O)CN(OC)[C@@H]1O[C@H](C(=O)O)[C@H](O)[C@H](O)[C@H]1O)CC2 [Col18, D-Galacturonoside] | no effect | 2090 | 2620 | 1100 | 1070 | 1120 | 1190 | 2000 | 2270 | 834 | 1110 | 1080 | 1070 | 1110 | 828 | 993 | 1130 | 1160 | 1490 | – | – |
| COc1cc2c(c(OC)c1OC)-c1ccc(OC)c(=O)cc1[C@@H](NC(=O)CN(OC)[C@@H]1O[C@H](CO)[C@@H](N=[N+]=[N-])[C@H](O)[C@H]1O)CC2 [Col44, 4-deoxy-4-azido-D-glucoside] | destabilized microtubules | 1420 | 3660 | 315 | 649 | > 1000 | > 1000 | 453 | 671 | 229 | 412 | > 1000 | > 1000 | > 1000 | > 1000 | > 1000 | > 1000 | 596 | 676 | – | – |
| COc1cc2c(c(OC)c1OC)-c1ccc(OC)c(=O)cc1[C@@H](NC(=O)CN(OC)[C@H]1C[C@@H](O)[C@H](O)[C@@H](CO)O1)CC2 [Col16, 2-deoxy-D-glucoside] | destabilized microtubules | 1610 | 4420 | 3900 | 1680 | 705 | 910 | 1920 | 1440 | 1070 | 1540 | 432 | 625 | 1680 | 899 | 946 | 808 | 2650 | 1920 | 5.97 | plus colchicine, median CI (A549 cells [2]): 5.33; interaction with colchicine (A549 cells [2]): antagonism; plus paclitaxel, mean CI (A549 cells [3]): 0.40; plus paclitaxel, median CI (A549 cells [3]): 0.11; interaction with paclitaxel/taxol (A549 cells [3]): synergy |
| 6-deoxy-6-acyl-D-galactoside [Col56] | no apparent effect | 1520 | 1490 | 1910 | 2090 | 1150 | 1090 | 1480 | 2230 | 1760 | > 1000 | 901 | 1180 | 1160 | 994 | 1550 | 1090 | 3130 | 812 | – | tubulin polymeriz. (tubulin): no effect |
| CONCC(=O)N[C@H]1CCc2cc(OC)c(OC)c(OC)c2-c2ccc(OC)c(=O)cc21 [Col 8, 19-N-methoxyamino-colchicine] | – | – | – | – | – | – | – | – | – | – | – | – | – | – | – | – | – | – | – | 2.98 | IC50 (Du145; Homo sapiens, DU-145, read-out: Cytotoxicity IC50, Du145, CTG): 64 nM; IC50 (Du145; Homo sapiens, DU-145, read-out: Cytotoxicity IC50, Du145, calcein): 84 nM; IC50 (Hep3B; Homo sapiens, Hep3B, read-out: Cytotoxicity IC50, Hep 3B, CTG): 141 nM; IC50 (Hep3B; Homo sapiens, Hep3B, read-out: Cytotoxicity IC50, Hep 3B, calcein): 284 nM; IC50 (SF-268; Homo sapiens, SF-268, read-out: Cytotoxicity IC50, SF-268, CTG): 116 nM; IC50 (SF-268; Homo sapiens, SF-268, read-out: Cytotoxicity IC50, SF-268, calcein): 191 nM; IC50 (HCT-116; Homo sapiens, HCT-116, read-out: Cytotoxicity IC50, HCT-116, CTG): 116 nM; IC50 (HCT-116; Homo sapiens, HCT-116, read-out: Cytotoxicity IC50, HCT-116, calcein): 98 nM; IC50 (SK-OV-3; Homo sapiens, SK-OV-3, read-out: Cytotoxicity IC50, SK-OV-3, CTG): 455 nM; IC50 (SK-OV-3; Homo sapiens, SK-OV-3, read-out: Cytotoxicity IC50, SK-OV-3, calcein): 316 nM; IC50 (ADR-RES; Homo sapiens, NCI/ADR-RES, read-out: Cytotoxicity IC50, NCI/ADR RES, CTG): 79 nM; IC50 (ADR-RES; Homo sapiens, NCI/ADR-RES, read-out: Cytotoxicity IC50, NCI/ADR RES, calcein): 65 nM; plus colchicine, median CI (A549 cells [2]): 1.47; interaction with colchicine (A549 cells [2]): antagonism; plus paclitaxel, mean CI (A549 cells [3]): 0.90; plus paclitaxel, median CI (A549 cells [3]): 0.57; interaction with paclitaxel/taxol (A549 cells [3]): synergy |
| COc1cc2c(c(OC)c1OC)-c1ccc(OC)c(=O)cc1[C@@H](NC(=O)CN(OC)[C@@H]1O[C@H](CO)[C@@H](O)[C@H](O)[C@H]1F)CC2 [Col34, 2-fluoro-2-deoxy-D-glucoside] | destabilized microtubules | 451 | 760 | 545 | 778 | – | 328 | 545 | 1170 | 281 | 452 | 325 | 800 | > 1000 | > 1000 | > 1000 | > 1000 | 242 | 254 | 31.49 | plus colchicine, median CI (A549 cells [2]): 21.50; interaction with colchicine (A549 cells [2]): strong antagonism; plus paclitaxel, mean CI (A549 cells [3]): 0.18; plus paclitaxel, median CI (A549 cells [3]): 0.12; interaction with paclitaxel/taxol (A549 cells [3]): strong synergism |
